Literature values as cited in US20060270611A1, “PEDIATRIC FORMULATION OF TOPIRAMATE” (priority 2005, published 2006).

Conditions: clinical trials of human epilepsy; adjunctive therapy or monotherapy

CC1(C)O[C@H]2[C@H]3OC(C)(C)O[C@]3(COS(N)(=O)=O)OC[C@H]2O1 [Topiramate, 2,3:4,5-bis-O-(1-methylethylidene) β-D-fructopyranose sulfamate]
efficacy in treating simple and complex partial seizures and secondarily generalized seizures: effective as adjunctive therapy or as monotherapy
